From patent US20230118688A1, “1H-PYRAZOLO[4,3-d]PYRIMIDINE COMPOUNDS AS TOLL-LIKE RECEPTOR 7 (TLR7) AGONISTS” (BRISTOL-MYERS SQUIBB COMPANY, priority 2020, published 2023)

Legend:
human TLR7 = target: T1, human TLR7 (Homo sapiens, UniProt Q9NYK1); test: Human TLR7 agonist activity reporter assay (HEK-Blue TLR7 cells, SEAP reporter); format: cell-based; conditions: 18 h treatment, average where assay repeated, Table A1, read-out: hTLR7 Agonism EC50
T1 construct: host or cells: HEK-Blue TLR7 cells (engineered human embryonic kidney cells)
T1 sequence (Q9NYK1 27-1049): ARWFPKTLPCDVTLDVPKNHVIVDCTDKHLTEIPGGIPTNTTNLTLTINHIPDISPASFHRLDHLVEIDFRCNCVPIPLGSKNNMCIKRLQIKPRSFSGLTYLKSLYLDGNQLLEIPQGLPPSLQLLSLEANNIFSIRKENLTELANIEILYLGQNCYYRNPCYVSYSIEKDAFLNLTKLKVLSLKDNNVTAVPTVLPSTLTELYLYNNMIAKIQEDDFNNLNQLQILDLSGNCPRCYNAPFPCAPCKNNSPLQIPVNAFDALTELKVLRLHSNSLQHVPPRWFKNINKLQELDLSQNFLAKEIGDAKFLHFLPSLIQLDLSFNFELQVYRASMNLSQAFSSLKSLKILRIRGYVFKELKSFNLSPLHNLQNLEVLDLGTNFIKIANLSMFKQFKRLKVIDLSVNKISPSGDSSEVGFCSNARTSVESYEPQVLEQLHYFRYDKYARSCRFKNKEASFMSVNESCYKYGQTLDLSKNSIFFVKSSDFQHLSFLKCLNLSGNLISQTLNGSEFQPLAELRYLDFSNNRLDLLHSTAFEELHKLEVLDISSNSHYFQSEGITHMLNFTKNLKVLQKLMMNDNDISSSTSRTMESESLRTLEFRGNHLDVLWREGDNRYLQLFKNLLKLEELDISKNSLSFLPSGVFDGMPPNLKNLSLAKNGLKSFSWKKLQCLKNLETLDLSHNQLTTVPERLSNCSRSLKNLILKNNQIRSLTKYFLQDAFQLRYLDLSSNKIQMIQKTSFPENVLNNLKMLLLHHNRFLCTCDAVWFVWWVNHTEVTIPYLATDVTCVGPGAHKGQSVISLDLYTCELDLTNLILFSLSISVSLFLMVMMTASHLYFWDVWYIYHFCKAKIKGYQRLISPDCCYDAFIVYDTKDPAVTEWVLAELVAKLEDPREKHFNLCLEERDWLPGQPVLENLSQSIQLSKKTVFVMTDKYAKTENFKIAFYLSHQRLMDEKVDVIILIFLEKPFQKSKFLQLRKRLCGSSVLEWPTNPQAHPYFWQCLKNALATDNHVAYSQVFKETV
Procedure: This procedure describes a method for assaying human TLR7 (hTLR7) agonist activity of the compounds disclosed in this specification.
HEK-Blue™ TLR7 cells were added to each well of a 384-well tissue-culture plate (15,000 cells per well) and incubated 16-18 h at 37° C., 5% CO2. Compounds (100 nl) were dispensed into wells containing the HEK-Blue™ TLR cells and the treated cells were incubated at 37° C., 5% CO2. After 18 h treatment ten microliters of freshly-prepared Quanti-Blue™ reagent (Invivogen) was added to each well, incubated for 30 min (37° C., 5% CO2) and SEAP levels measured using an Envision plate reader (OD=620 nm). The half maximal effective concentration values (EC50; compound concentration which induced a response halfway between the assay baseline and maximum) were calculated.

CD69 = test: Induction of CD69 in human whole blood; format: cell-based; conditions: 17 h, CD69 surface staining, 100% set to 1 uM resiquimod, average where assay repeated, Table A1, read-out: hWB CD69 EC50
Procedure: The induction of Type I interferon (IFN) MX-1 genes and the B-cell activation marker CD69 are downstream events that occur upon activation of the TLR7 pathway. The following is a human whole blood assay that measures their induction in response to a TLR7 agonist.
Heparinized human whole blood was harvested from human subjects and treated with test TLR7 agonist compounds at 1 mM. The blood was diluted with RPMI 1640 media and Echo was used to predot 10 nL per well giving a final concentration of 1 uM (10 nL in 10 uL of blood). After mixing on a shaker for 30 sec, the plates were covered and placed in a 37° C. chamber for o/n=17 hrs. Fixing/lysis buffer was prepared (5×->1× in H2O, warm at 37° C.; Cat #BD 558049) and kept the perm buffer (on ice) for later use.
For surface markers staining (CD69): prepared surface Abs: 0.045 ul hCD14-FITC (ThermoFisher Cat #MHCD1401)+0.6 ul hCD19-ef450 (ThermoFisher Cat #48-0198-42)+1.5 ul hCD69-PE (cat #BD555531)+0.855 ul FACS buffer. Added 3 ul/well, spin1000 rpm for 1 min and mixed on shaker for 30 sec, put on ice for 30 mins. Stop stimulation after 30 minutes with 70 uL of prewarmed 1× fix/lysis buffer and use Feliex mate to resuspend (15 times, change tips for each plate) and incubate at 37C for 10 minutes.
Centrifuge at 2000 rpm for 5 minutes aspirate with HCS plate washer, mix on shaker for 30 sec and then wash with 70 uL in dPBS and pelleted 2×s (2000 rpm for 5 min) and 50 ul wash in FACS buffer pelleted 1×s(2000 rpm for 5 min). Mix on shaker for 30 sec. For Intracellular markers staining (MX-1): Add 50 ul of BD Perm buffer III and mix on shaker for 30 sec. Incubate on ice for 30 minutes (in the dark). Wash with 50 uL of FACS buffer 2× (spin @2300 rpm×5 min after perm) followed by mixing on shaker for 30 sec. Resuspended in 20 ul of FACS buffer containing MX1 antibody ( ) (4812)-Alexa 647: Novus Biologicals #NBP2-43704AF647) 20 ul FACS bf+0.8 ul hlgG+0.04 ul MX-1. Spin 1000 rpm for 1 min, mix on shaker for 30se and the samples were incubated at RT in the dark for 45 minutes followed by washing 2×FACS buffer (spin @2300 rpm×5 min after perm). Resuspend 20 ul (35 uL total per well) of FACS buffer and cover with foil and place in 4° C. to read the following day. Plates were read on iQuePlus. The results were loaded into toolset and IC50 curves are generated in curve master. The y-axis 100% is set to 1 uM of resiquimod.

SMILES | EC50 (human TLR7) | EC50 (CD69)
CCCCNc1nc(N)nc2cnn(Cc3cc(CN(C)CCN(C)C)ccc3OC)c12 [Compound 133, N7-butyl-1-{[5-({[2-(dimethylamino)ethyl](methyl)-amino}methyl)-2-methoxy-phenyl]methyl}-1H-pyrazolo [4,3-d]pyrimidine-5,7-diamine] | 176 nM | 17 nM
CCCCNc1nc(N)nc2cnn(Cc3cc(CN4CCNCC4)ccc3OC)c12 [Compound 134, N7-butyl-1-({2-methoxy-5-[(piperazin-1-yl)methyl]-phenyl}methyl)-1H-pyrazolo[4,3-d]pyrimidine-5,7-diamine] | 201 nM | 62.5 nM
CCCCNc1nc(N)nc2cnn(Cc3cc(CNC(=O)CN(C)C)ccc3OC)c12 [Compound 136, N-[(3-{[5-amino-7-(butyl-amino)-1H-pyrazolo[4,3-d]pyrimidin-1-yl]methyl}-4-methoxyphenyl)methyl]-2-(dimethylamino)acetamide] | 51.1 nM | 19.1 nM
CCCCNc1nc(N)nc2cnn(Cc3cc(CN4CC(N(C)C)C4)ccc3OC)c12 [Compound 137, N7-butyl-1-[(5-{[3-(dime-thylamino)azetidin-1-yl]-methyl}-2-methoxyphenyl)methyl]-1H-pyrazolo-[4,3-d]pyrimidine-5,7-diamine] | 114 nM | 28.1 nM
CCCCNc1nc(N)nc2cnn(Cc3cc(CN4CCN(C(=O)C5CCC5)CC4)ccc3OC)c12 [Compound 138, N7-butyl-1-({5-[(4-cyclo-butanecarbonylpiperazin-1-yl)methyl]-2-methoxy-phenyl}methyl)-1H-pyrazolo-[4,3-d]pyrimidine-5,7-diamine] | 2070 nM | ≥ 1000 nM
CCCCNc1nc(N)nc2cnn(Cc3cc(COC)ccc3OC)c12 [Compound 139, N7-butyl-1-{[2-methoxy-5-(methoxymethyl)phenyl]-methyl}-1H-pyrazolo[4,3-d]pyrimidine-5,7-diamine] | 331 nM | 894 nM
CCCCNc1nc(N)nc2cnn(Cc3cc(CO)ccc3OC)c12 [Compound 140, (3-((5-amino-7-(butylamino)-1H-pyrazolo[4,3-d]pyrimidin-1-yl)methyl)-4-methoxyphenyl)methanol] | 27.5 nM | 134 nM
CCCCNc1nc(N)nc2cnn(Cc3cc(COC4COC4)ccc3OC)c12 [Compound 141, N7-butyl-1-({2-methoxy-5-[(oxetan-3-yloxy)me-thyl]phenyl}methyl)-1H-pyrazolo[4,3-d]pyrimidine-5,7-diamine] | 498 nM | 831 nM
CCCCNc1nc(N)nc2cnn(Cc3cc(COCCCO)ccc3OC)c12 [Compound 143, 3-[(3-{[5-amino-7-(butyl-amino)-1H-pyrazolo[4,3-d]pyrimidin-1-yl]methyl}-4-methoxyphenyl)-methoxy]propan-1-ol] | 424 nM | 725 nM
CCCCNc1nc(N)nc2cnn(Cc3cc(COCCC(C)(C)O)ccc3OC)c12 [Compound 144, 4-[(3-{[5-amino-7-(butyl-amino)-1H-pyrazolo[4,3-d]pyrimidin-1-yl]methyl}-4-methoxyphenyl)methoxy]-2-methylbutan-2-ol] | 562 nM | ≥ 1000 nM
CCCCNc1nc(N)nc2cnn(Cc3cc(C#N)ccc3OC)c12 [Compound 145, 3-{[5-amino-7-(butyl-amino)-1H-pyrazolo[4,3-d]pyrimidin-1-yl]methyl}-4-methoxybenzonitrile] | 402 nM | 942 nM
CCCCNc1nc(N)nc2cnn(Cc3cc(CN(C)C(=O)CCOC)ccc3OC)c12 [Compound 146, N-[(3-{[5-amino-7-(butyl-amino)-1H-pyrazolo[4,3-d]pyrimidin-1-yl]methyl}-4-methoxyphenyl)methyl]-3-methoxy-N-methylpropanamide] | 499 nM | ≥ 1000 nM
CCCCNc1nc(N)nc2cnn(Cc3cc(CN(C)C(=O)CCO)ccc3OC)c12 [Compound 147, N-[(3-{[5-amino-7-(butyl-amino)-1H-pyrazolo[4,3-d]pyrimidin-1-yl]methyl}-4-methoxyphenyl)methyl]-3-hydroxy-N-methylpropanamide] | 170 nM | 455 nM
CCCCNc1nc(N)nc2cnn(Cc3cc(CN(C)C(=O)CC(C)(C)O)ccc3OC)c12 [Compound 148, N-[(3-{[5-amino-7-(butyl-amino)-1H-pyrazolo[4,3-d]pyrimidin-1-yl]methyl}-4-methoxyphenyl)methyl]-3-hydroxy-N,3-dimethyl-butanamide] | 665 nM | ≥ 1000 nM
COc1ccc(CN2CC(OC)C2)cc1Cn1ncc2nc(N)nc(NCC3CC4(CC4)C3)c21 [Compound 149, 1-({2-methoxy-5-[(3-methoxyazetidin-1-yl)methyl]-phenyl}methyl)-N7-({spiro-[2.3]hexan-5-yl}methyl)-1H-pyrazolo[4,3-d]pyrimidine-5,7-diamine] | 271 nM | 525 nM
COc1ccc(CNC2CCOCC2)cc1Cn1ncc2nc(N)nc(NCC3CC4(CC4)C3)c21 [Compound 150, 1-[(2-methoxy-5-{[(oxan-4-yl)amino]methyl}phenyl)-methyl]-N7-({spiro[2.3]-hexan-5-yl}methyl)-1H-pyrazolo[4,3-d]pyrimidine-5,7-diamine] | 387 nM | 298 nM
CCCCNc1nc(N)nc2cnn(Cc3cc(CN4CC(F)(F)C4)ccc3OC)c12 [Compound 151, N7-butyl-1-({5-[(3,3-difluoro-azetidin-1-yl)methyl]-2-methoxyphenyl}methyl)-1H-pyrazolo[4,3-d] pyrimidine-5,7-diamine] | 768 nM | ≥ 1000 nM
COc1ccc(C(=O)NC2CCN(C)CC2)cc1Cn1ncc2nc(N)nc(NCC3CC4(CC4)C3)c21 [Compound 152, 3-({5-amino-7-[({spiro-[2.3]hexan-5-yl}methyl)-amino]-1H-pyrazolo[4,3-d]pyrimidin-1-yl}methyl)-4-methoxy-N-(1-methylpiperidin-4-yl)benzamide] | 467 nM | 159 nM
